Literature values in patent US5434330A, “Process and apparatus for separation of constituents of gases using gas hydrates” (priority 1993, dated 1995).
Read-outs that look alike come from different tables or passages of the source.

Experiments:
[1] = in ethyl ether, 20° C.
[2] = for calculation at 253K
[3] = 25° C.

| Compound | Ostwald coefficient [1] | methane-methanol Henry's law constant ([2]; in methanol) | methane-water Henry's law constant ([2]; in water) | SOLUBILITY OF METHANE, HENRY'S CONSTANT H ([3]; in Acetone) | SOLUBILITY OF METHANE, HENRY'S CONSTANT H ([3]; in Ethanol) | SOLUBILITY OF METHANE, HENRY'S CONSTANT H ([3]; in Methanol) | SOLUBILITY OF METHANE, HENRY'S CONSTANT H ([3]; in Water) | nitrogen-methanol Henry's law constant ([2]; in methanol) | nitrogen-water Henry's law constant ([2]; in water) |
| --- | --- | --- | --- | --- | --- | --- | --- | --- | --- |
| C [methane] | 1028 | 824 atm | 10,193 atm | 533 atm | 770 atm | 1137 atm | 39,052 atm | – | – |
| N#N [nitrogen] | – | – | – | – | – | – | – | 3,632 atm | 27,987 atm |
